Legend:
[1] = Formation of 1,5-cz-[Ln(Lig)] from Lig and Ln^III ions (metal dependent click-zip), MOPS/NaOH buffer pH 7.0, analytical HPLC (Charts 1, 2); conditions: MOPS/NaOH buffer pH 7.0
[2] = Formation of 1,5-cz-[M(Lig)] from Lig and M^III ions (metal dependent click-zip) (Charts 4, 5); type: physicochemical; conditions: MOPS/NaOH buffer pH 7.0, TD728, TD827 in 50% i-PrOH; for conversion to 1,5-cz-[M(Lig)], Y^III: TD714 sum of two diastereoisomers

| conversion to 1,5-cz-[Ln(Lig)], Ce^III ([1]; after 1 week at 80° C.) | conversion to 1,5-cz-[Ln(Lig)], Ce^III ([1]; after 1 hour at 80° C.) | conversion to 1,5-cz-[Ln(Lig)], Dy^III ([1]; after 1 week at 80° C.) | conversion to 1,5-cz-[Ln(Lig)], Dy^III ([1]; after 1 hour at 80° C.) | conversion to 1,5-cz-[Ln(Lig)], Er^III ([1]; after 1 week at 80° C.) | conversion to 1,5-cz-[Ln(Lig)], Er^III ([1]; after 1 hour at 80° C.) | conversion to 1,5-cz-[Ln(Lig)], Eu^III ([1]; after 1 week at 80° C.) | conversion to 1,5-cz-[Ln(Lig)], Eu^III ([1]; after 1 hour at 80° C.) | conversion to 1,5-cz-[Ln(Lig)], Gd^III ([1]; after 1 week at 80° C.) | conversion to 1,5-cz-[Ln(Lig)], Gd^III ([1]; after 1 hour at 80° C.) | conversion to 1,5-cz-[Ln(Lig)], Ho^III ([1]; after 1 week at 80° C.) | conversion to 1,5-cz-[Ln(Lig)], Ho^III ([1]; after 1 hour at 80° C.) | conversion to 1,5-cz-[Ln(Lig)], La^III ([1]; after 1 week at 80° C.) | conversion to 1,5-cz-[Ln(Lig)], La^III ([1]; after 1 hour at 80° C.) | conversion to 1,5-cz-[Ln(Lig)], Lu^III ([1]; after 1 week at 80° C.) | conversion to 1,5-cz-[Ln(Lig)], Lu^III ([1]; after 1 hour at 80° C.) | conversion to 1,5-cz-[Ln(Lig)], Nd^III ([1]; after 1 week at 80° C.) | conversion to 1,5-cz-[Ln(Lig)], Nd^III ([1]; after 1 hour at 80° C.) | conversion to 1,5-cz-[Ln(Lig)], Pr^III ([1]; after 1 week at 80° C.) | conversion to 1,5-cz-[Ln(Lig)], Pr^III ([1]; after 1 hour at 80° C.) | Compound | also measured |
| --- | --- | --- | --- | --- | --- | --- | --- | --- | --- | --- | --- | --- | --- | --- | --- | --- | --- | --- | --- | --- | --- |
| 0% | 0% | 0% | 8% | 0% | 12% | 0% | 2% | 0% | 3% | 0% | 10% | 0% | 0% | 0% | 5% | 0% | 0% | 0% | 0% | C#Cc1cccc(CN2CCN(CC(N)=O)CCN(Cc3cc(-c4ccccc4)cc(CN=[N+]=[N-])n3)CCN(CC(N)=O)CC2)n1 [TD779] | conversion to 1,5-cz-[Ln(Lig)], Sm^III ([1]; after 1 week at 80° C.): 0%; conversion to 1,5-cz-[Ln(Lig)], Sm^III ([1]; after 1 hour at 80° C.): 1%; conversion to 1,5-cz-[Ln(Lig)], Tb^III ([1]; after 1 week at 80° C.): 0%; conversion to 1,5-cz-[Ln(Lig)], Tb^III ([1]; after 1 hour at 80° C.): 6%; conversion to 1,5-cz-[Ln(Lig)], Tm^III ([1]; after 1 week at 80° C.): 0%; conversion to 1,5-cz-[Ln(Lig)], Tm^III ([1]; after 1 hour at 80° C.): 9%; conversion to 1,5-cz-[Ln(Lig)], Yb^III ([1]; after 1 week at 80° C.): 0%; conversion to 1,5-cz-[Ln(Lig)], Yb^III ([1]; after 1 hour at 80° C.): 9%; conversion to 1,5-cz-[M(Lig)], Sc^III ([2]; 1 week at 80° C.): 0%; conversion to 1,5-cz-[M(Lig)], Y^III ([2]; 1 week at 80° C.): 0%; conversion to 1,5-cz-[M(Lig)], Sc^III ([2]; 1 hour at 80° C.): 0%; conversion to 1,5-cz-[M(Lig)], Y^III ([2]; 1 hour at 80° C.): 4% |
| 0% | 0% | 0% | 0% | 0% | 0% | 0% | 0% | 0% | 0% | 0% | 0% | 0% | 0% | 0% | 0% | 0% | 0% | 0% | 0% | C#Cc1cccc(CN2CCN(CCC(=O)O)CCN(Cc3cccc(CN=[N+]=[N-])n3)CCN(CCC(=O)O)CC2)n1 [TD801] | conversion to 1,5-cz-[Ln(Lig)], Sm^III ([1]; after 1 week at 80° C.): 0%; conversion to 1,5-cz-[Ln(Lig)], Sm^III ([1]; after 1 hour at 80° C.): 0%; conversion to 1,5-cz-[Ln(Lig)], Tb^III ([1]; after 1 week at 80° C.): 0%; conversion to 1,5-cz-[Ln(Lig)], Tb^III ([1]; after 1 hour at 80° C.): 0%; conversion to 1,5-cz-[Ln(Lig)], Tm^III ([1]; after 1 week at 80° C.): 0%; conversion to 1,5-cz-[Ln(Lig)], Tm^III ([1]; after 1 hour at 80° C.): 0%; conversion to 1,5-cz-[Ln(Lig)], Yb^III ([1]; after 1 week at 80° C.): 0%; conversion to 1,5-cz-[Ln(Lig)], Yb^III ([1]; after 1 hour at 80° C.): 0%; conversion to 1,5-cz-[M(Lig)], Sc^III ([2]; 1 week at 80° C.): 0%; conversion to 1,5-cz-[M(Lig)], Y^III ([2]; 1 week at 80° C.): 0%; conversion to 1,5-cz-[M(Lig)], Sc^III ([2]; 1 hour at 80° C.): 0%; conversion to 1,5-cz-[M(Lig)], Y^III ([2]; 1 hour at 80° C.): 0% |

Source: US20250147039A1, “Compounds for complexation of rare earth elements and/or s-, p-, d- block metals, their coordination compounds, peptide conjugates, method of their preparation and use thereof” (USTAV ORGANICKE CHEMIE A BIOCHEMIE AV CR V.V.I., priority 2021, published 2025)
